Data as given in patent US20200172913A1, “PEPTIDES AND NANOPARTICLES FOR INTRACELLULAR DELIVERY OF VIRUS” (priority 2017, published 2020).
Like-named read-outs stand apart in the source and are kept apart here. *1 amine or outer side, *2 acyl side, *3 side chain or, on linkers, in order; H or OH if unused. Where a SMILES comes first, the peptide text is derived from it. Where no end group is shown, it is not given here. Cysteamide = C(CS[*:3])N[*:1]

Experiments:
[1] = test system: HepG2 cells; details: AAV-2, HepG2, Liu et al., cited from earlier work
[2] = test system: HepG2 cells; assay: AAV-5-GFP transduction with CPPs, flow cytometry; format: cell-based, human; details: 200 μM CPP; for cells expressing GFP: AAV-5 MOI of 500, HepG2, 5% in the absence of CPP; for increase of AAV-5 efficiency: MOI of 500, HepG2
Description: (§1) In this example different AAV serotypes including AAV 1, AAV2, AAV5, AAV6, AAV8 and AAV9 were tested against human hepatocytes (HepG2) and human neuronal cells (HCN2) in the presence or in the absence of CPPs including ADGN-103a, ADGN-103b, ADGN-100, ADGN-109, ADGN-106, PEP-1, PEP-2, CADY, and TAT-HA2.
(§2) AAV-1, AAV-2, AAV-5, and AAV-6 viruses encoding green fluorescent protein were obtained from Cell Biolabs Inc and AAV-8 from Vector Biolabs. Stock solutions of virus were obtained at 1χ10^13 GC/ml in PBS/0.01% and diluted 50-fold to 2×10^11 GC/ml before use.
(§3) AAV-1, AAV-2, AAV-5, and AAV6 encoding green fluorescent protein were used at low MOI of 500 (1-2×10^7 PFU) and AAV-8 at MOI of 1000 (2-4×10^7 PFU). HepG2 and HCN2 cells (1 10^6 cells per well) were cultured in a 24 well plate culture dish format. For MOI of 1000, 5 μl of AAV virus diluted solutions were preincubated in PBS with increasing concentration of CPPs ranging from 0.1 to 200 μM for 30 min. For MOI of 500, 2.5 μl of AAV virus diluted solutions were preincubated in PBS with increasing concentration of CPPs ranging from 0.1 to 200 μM for 30 min. 200 μl of AAV or CPP/AAV complex solutions were added to cultured cells (1×10^6 cells per well). Cells are treated with either free AAV or CPP/AAV complexes for 4 h. and then the medium is replaced with fresh medium.
(§4) Viral mediated transgene expression was monitored by flow cytomety 2 days post-infection in HepG2 and Human neuronal HCN2. The percentage of GFP expressing cells were detected by flow cytometry and the increase of AAV infectivity was calculated based on the number of GFP-positive cells. Results are reported in FIGS. 5A-5D, 6A-6D, 7A-7D, 8A-8D, and 9A-9D.

[3] = test system: HCN2 cells; assay: AAV-5-GFP transduction with CPPs, flow cytometry; format: cell-based, human; details: 200 μM CPP; for cells expressing GFP: AAV-5 MOI of 500, HCN2, 5% in the absence of CPP; for increase of AAV-5 efficiency: MOI of 500, HCN2
Description: as §1, §2, §3, §4

[4] = test system: HepG2 cells; assay: AAV-8-GFP transduction with CPPs, flow cytometry; format: cell-based, human; details: 200 μM CPP, AAV-8 MOI of 1000, HepG2; 5% in the absence of CPP
Description: as §1, §2, §3, §4

[5] = test system: HCN2 cells; assay: AAV-8-GFP transduction with CPPs, flow cytometry; format: cell-based, human; details: 200 μM CPP, AAV-8 MOI of 1000, HCN2; 5% in the absence of CPP
Description: as §1, §2, §3, §4

[6] = test system: HepG2 cells; assay: AAV-2-GFP transduction with CPPs, flow cytometry; format: cell-based, human; details: 200 μM CPP; for cells expressing GFP: AAV-2 MOI of 500, HepG2, 4% in the absence of CPP; for increase of AAV-2 efficiency: MOI of 500, HepG2
Description: as §1, §2, §3, §4

[7] = test system: HCN2 cells; assay: AAV-2-GFP transduction with CPPs, flow cytometry; format: cell-based, human; details: 200 μM CPP; for cells expressing GFP: AAV-2 MOI of 500, HCN2, 4% in the absence of CPP; for increase of AAV-2 efficiency: MOI of 500, HCN2
Description: as §1, §2, §3, §4

[8] = test system: HepG2 cells; assay: AAV-2 transfection of HepG2 cells with TAT-HA2 or LAH4 peptides (Liu et al., Molecular Therapy, 2014); format: cell-based, human; details: 200 μM, GFP-positive cells
[9] = test system: HepG2 cells; assay: AAV-6-GFP transduction with CPPs, flow cytometry; format: cell-based, human; details: 200 μM CPP; for cells expressing GFP: AAV-6 MOI of 500, HepG2, 5% in the absence of CPP; for increase of AAV-6 efficiency: MOI of 500, HepG2
Description: as §1, §2, §3, §4

[10] = test system: HCN2 cells; assay: AAV-6-GFP transduction with CPPs, flow cytometry; format: cell-based, human; details: for increase of AAV-6 efficiency: 200 μM CPP, MOI of 500, HCN2; for cells expressing GFP: 200 μM of CPP, AAV-6 MOI of 500, HCN2, 4% in the absence of CPP
Description: as §1, §2, §3, §4

[11] = test system: HepG2 cells; assay: AAV-1-GFP transduction with CPPs, flow cytometry; format: cell-based, human; details: 200 μM CPP; for cells expressing GFP: AAV-1 MOI of 500, HepG2, 5% in the absence of CPP
Description: as §1, §2, §3, §4

[12] = test system: HCN2 cells; assay: AAV-1-GFP transduction with CPPs, flow cytometry; format: cell-based, human; details: 200 μM CPP; for cells expressing GFP: AAV-1 MOI of 500, HCN2, 5% in the absence of CPP; for increase of AAV-1 efficiency: MOI of 500, HCN2
Description: as §1, §2, §3, §4

[13] = target: Adeno-associated virus AAV-2 encoding green fluorescent protein (adeno-associated virus serotype 2) (UniProt P03135); assay: cell-based or functional assay
[14] = test system: HUVEC cell lines; assay: Cytotoxicity of AAV-CPP complexes, XTT assay; format: cell-based; details: CPP concentration of 500 μM, AAV-6-βGal MOI of 300, XTT after 2 days
Description: The cytoxicity of the AAV-CPP complexes was evaluated on HUVEC cell lines. AAV encoding beta galactosidase (AAV-6-βGal) at MOI of 300 were preincubated in PBS with increasing concentration of CPPs ranging from 1 to 500 μM for 30 min. Cells were treated with either free AAV (No CPP) or CPP/AAV complexes for 4 h, then the medium was replaced with fresh medium. Cytotoxicity of AAV-CPP complexes was determined using the XTT assay after 2 days. […] A low cytotoxicity of 5% for PEP-1 and PEP-2 and 8% for Pant were obtained for a CPP concentration of 500 μM.

[15] = test system: HepG2 and HCN2 cells; assay: AAV-1-GFP transduction with CPPs, statements for both cell lines; format: cell-based, human
Description: as §1, §2, §3, §4

[16] = test system: HepG2 and HCN2 cells; assay: AAV-2-GFP transduction with CPPs, statements for both cell lines; format: cell-based, human
Description: as §1, §2, §3, §4

[17] = test system: HepG2 and HCN2 cells; assay: AAV-6-GFP transduction with CPPs, statements for both cell lines; format: cell-based, human
Description: as §1, §2, §3, §4

[18] = test system: HepG2 and HCN2 cells; assay: AAV-8-GFP transduction with CPPs, statements for both cell lines; format: cell-based, human
Description: as §1, §2, §3, §4

[19] = test system: HepG2 and HCN2 cells; assay: AAV-5-GFP transduction with CPPs, statements for both cell lines; format: cell-based, human
Description: as §1, §2, §3, §4

[20] = target: Adeno-associated virus AAV-2 encoding green fluorescent protein (adeno-associated virus serotype 2) (UniProt P03135); assay: cell-based or functional assay; remark: listed apart in the source
[21] = 200 μM concentration of peptide
[22] = 1 μM concentration, both cell lines

CRRRQRRKKRGGDIMGEWGNEIFGAIAGFLG [TAT-HA2, reference compound]
GFP-positive cells [1, 21]: about 25% | GFP-positive cells ([1]; concentration of CPPs): 12% | cells expressing GFP [2]: 11% | increase of AAV-5 efficiency [2]: 3 fold | cells expressing GFP [3]: 10% | increase of AAV-5 efficiency [3]: 2 fold | cells expressing GFP [4]: 15% | cells expressing GFP [5]: 12% | cells expressing GFP [6]: 23% | increase of AAV-2 efficiency [6]: 5 fold | cells expressing GFP [7]: 20% | increase of AAV-2 efficiency [7]: 3 fold | fold lower than the results obtained with the ADGN peptides [8]: 4 fold | cells expressing GFP [9]: 35% | increase of AAV-6 efficiency [9]: about 10 fold | increase of AAV-6 efficiency [10]: 3 fold | cells expressing GFP [10]: 22% | cells expressing GFP [11]: 27% | cells expressing GFP [12]: 22% | increase of AAV-1 efficiency [12]: 3 fold

PEP-1-DOPA (peptide)
efficacy (GFP expressing 293 T cells) after incubation of the complexes in 50% serum [13]: 30 % reduction

KKALLALALHHLAHLALHLALALKKAC [LAH4, a leucine- and histidine-rich peptide]
GFP-positive cells [1, 21]: ~45% | GFP-positive cells ([1]; concentration of CPPs): 12% | fold lower than the results obtained with the ADGN peptides [8]: 2 fold

PEP-1-PEG (peptide)
efficacy (GFP expressing 293 T cells) after incubation of the complexes in 50% serum [13]: 30 % reduction

CC(=O)N[C@@H](CCCCN)C(=O)N[C@@H](CCC(=O)O)C(=O)N[C@H](C(=O)N[C@@H](Cc1c[nH]c2ccccc12)C(=O)N[C@@H](Cc1ccccc1)C(=O)N[C@@H](CCC(=O)O)C(=O)N[C@H](C(=O)N[C@@H](Cc1c[nH]c2ccccc12)C(=O)N[C@@H](Cc1ccccc1)C(=O)N[C@H](C(=O)N[C@@H](CCC(=O)O)C(=O)N[C@@H](Cc1c[nH]c2ccccc12)C(=O)N[C@@H](CO)C(=O)N[C@@H](CCC(N)=O)C(=O)N1CCC[C@H]1C(=O)N[C@@H](CCCCN)C(=O)N[C@@H](CCCCN)C(=O)N[C@@H](CCCCN)C(=O)N[C@@H](CCCNC(=N)N)C(=O)N[C@@H](CCCCN)C(=O)N[C@H](C(=O)NCCS)C(C)C)[C@@H](C)O)[C@@H](C)O)[C@@H](C)O [PEP-2] (Ac-KETWFETWFTEWSQPKKKRKV-Cysteamide)
cytotoxicity [14]: 5%

βAKWRSAGWRWRLWRVRSWSR (not fully specified (residue 1, N-terminus); printed as βAKWRSAGWRWRLWRVRSWSR) [ADGN-100]
impact on AAV-1 infectivity [15, 22]: significant impact | share of the final improvement obtained with 200 μM ([15]; 10 μM concentration of CPP, AAV-1, both cell lines): about 60% | impact on AAV-2 infectivity [16, 22]: significant impact | share of the final improvement obtained with 200 μM ([16]; 10 μM concentration of CPP, AAV-2, both cell lines): about 70% | cells expressing GFP [2]: 39% | increase of AAV-5 efficiency [2]: 10 fold | cells expressing GFP [3]: 22% | increase of AAV-5 efficiency [3]: 5 fold | cells expressing GFP [4]: 26% | cells expressing GFP [5]: 23% | cells expressing GFP [6]: 57% | increase of AAV-2 efficiency [6]: 20 fold | cells expressing GFP [7]: 59% | increase of AAV-2 efficiency [7]: 15 fold | impact on AAV-6 infectivity [17, 22]: significant impact | share of the final improvement obtained at 200 μM ([17]; 10 μM concentration, AAV-6, both cell lines): about 70% | cells expressing GFP [9]: 59% | increase of AAV-6 efficiency [9]: 17 fold | increase of AAV-6 efficiency [10]: 15 fold | cells expressing GFP [10]: 48% | cells expressing GFP [11]: 50% | increase of AAV-1 efficiency ([11]; MOI of 500, HepG2): 13 fold | cells expressing GFP [12]: 52% | increase of AAV-1 efficiency [12]: 12 fold | impact on AAV-8 infectivity [18, 22]: significant impact | share of the final improvement obtained at 200 μM ([18]; 10 μM concentration, AAV-8, both cell lines): about 60% | impact on AAV-5 infectivity [19, 22]: significant impact | share of the final improvement obtained at 200 μM ([19]; 10 μM concentration, AAV-5, both cell lines): about 50%

CC(=O)N[C@@H](CCCCN)C(=O)N[C@@H](CCC(=O)O)C(=O)N[C@H](C(=O)N[C@@H](Cc1c[nH]c2ccccc12)C(=O)N[C@@H](Cc1c[nH]c2ccccc12)C(=O)N[C@@H](CCC(=O)O)C(=O)N[C@H](C(=O)N[C@@H](Cc1c[nH]c2ccccc12)C(=O)N[C@@H](Cc1c[nH]c2ccccc12)C(=O)N[C@H](C(=O)N[C@@H](CCC(=O)O)C(=O)N[C@@H](Cc1c[nH]c2ccccc12)C(=O)N[C@@H](CO)C(=O)N[C@@H](CCC(N)=O)C(=O)N1CCC[C@H]1C(=O)N[C@@H](CCCCN)C(=O)N[C@@H](CCCCN)C(=O)N[C@@H](CCCCN)C(=O)N[C@@H](CCCNC(=N)N)C(=O)N[C@@H](CCCCN)C(=O)N[C@H](C(=O)NCCS)C(C)C)[C@@H](C)O)[C@@H](C)O)[C@@H](C)O [PEP-1] (Ac-KETWWETWWTEWSQPKKKRKV-Cysteamide)
cytotoxicity [14]: 5%

B1: PEP-1 (N-acetylated, C-terminal cysteamide; Example 5) (peptide)
peptide: KETWWETWWTEWSQPKKKRKV
modifications: not fully specified (N-terminus, C-terminus)
level of GFP expressing cells (293 T cells, flow cytometry) after 1 h incubation of the complexes in 20% serum [20]: 60 % reduction | level of GFP expressing cells (293 T cells, flow cytometry) after 1 h incubation of the complexes in 50% serum [20]: 80 % reduction
